Source: patent US5780481A, “Method for inhibiting activation of the human A3 adenosine receptor to treat asthma” (Merck & Co., Inc., priority 1996, dated 1998)
One block for each molecule: values may come before it.

Experiments:
[1] = test system: mast cells isolated from rat peritoneum; conditions: cited from earlier work
asthmatics = asthmatics but not nonasthmatics; cited from earlier work
[2] = test system: hamster cheek pouch arterioles; assay: Vascular constriction in hamster cheek pouch arterioles; parameters: species or system Golden hamster
Experimental: Adenosine, inosine, cromolyn, compound 48/80, methylene blue, acetylcholine, and components for saline solutions used to bathe arterioles are obtained from Sigma. 8(p-sulphophenyl)theo-phylline was obtained from Research Biochemicals, Inc. (Natick, Mass.).
Arterioles (luminal diameter approximately 60 μm) are dissected from male Golden hamster cheek pouches, transferred to a 37° C. tissue chamber, and cannulated at both ends (see Duling et al., Am. J. Physiol., (241) (Heart Circ. Physiol., (10) pp. H108-H116 (1981); Duling et al., Microcirculatory Technology, edited by C. H. Baker and W. G. Nastuk, Orlando Academic Press, pp. 265-280 (1986)). Changes in luminal diameter in response to abluminal delivery of adenosine (10^-8 M to 10^-4 M) are measured using videotaped microscopic observation and video calipers with continuous output, to generate cumulative concentration-response curves.
Examination of the abluminal surface of the vessel after staining with methylene blue reveal large numbers of mast cells closely associated with the vessel wall.

[3] = target: T1, human A2b adenosine receptor (Homo sapiens, UniProt P29275); assay: cAMP accumulation via A2b receptors; format: cell-based; conditions: at 10 μM; stably transfected CHO cells; adenosine (10 μM) induced
T1 construct: cAMP accumulation induced by adenosine
T1 sequence (P29275 1-332): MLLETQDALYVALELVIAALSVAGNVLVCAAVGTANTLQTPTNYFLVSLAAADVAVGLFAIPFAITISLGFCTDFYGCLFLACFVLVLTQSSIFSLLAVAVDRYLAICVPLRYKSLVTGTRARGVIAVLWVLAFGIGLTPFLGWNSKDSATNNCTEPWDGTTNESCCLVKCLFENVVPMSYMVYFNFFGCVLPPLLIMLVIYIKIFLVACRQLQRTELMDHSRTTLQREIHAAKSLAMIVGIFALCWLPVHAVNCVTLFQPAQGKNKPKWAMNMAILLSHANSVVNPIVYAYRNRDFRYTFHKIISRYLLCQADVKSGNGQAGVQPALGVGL

[4] = target: T2, human A2a adenosine receptor (Homo sapiens, UniProt P29274); assay: Radioligand binding assay, A2a receptor; conditions: [3H]-CGS21680; membranes of transfected COS7 cells; read-out: IC50, inhibition of specific radioligand binding to A2a receptor
T2 construct: expressed in transfected cells; host or cells: COS7 cells (transient transfection), membranes
Description: (§1) The human A1, A2a, A2b and A3 receptor subtype cDNAs were subcloned into the expression vectors pSVL (Pharmacia, Columbus, Ohio), CMV5 (Mumby, et al., PNAS, (87) pp. 728-732 (1990)) pCDNA1 or pREP (Invitrogen). Transient expression in COS7 cells (monkey kidney cell line, ATCC CRL 1651, ATCC, Rockville, Md.) (Doyl et al. WO 95/11681) was accomplished by transfection of the cloned adenosine receptor cDNAs under the control of the SV40 promoter into mammalian cells, such as COS7. Membranes prepared from the transfected cells were utilized for the determination of binding affinity, selectivity and specificity of the human adenosine receptors for various ligands. […]
(§2) Membranes prepared from transfected COS7 cells were utilized in a binding assay to measure the affinity of agonists and antagonists on the human adenosine receptors. […] Bound radioactivity was measured by scintillation counting. Binding data were analyzed by the use on nonlinear regression curve fitting program Graph Pad InPlot, Version 3.0 (Graph Pad Software, San Diego). Ki values were calculated using the Cheng-Prusoff derivation (Cheng, Y. C. and Prusoff, H. R. (1973) Biochem. Pharmacol. 22, 3099-3108). […] Nonselective binding was determined with 1 μM I-ABA for A1 and A3 receptors and 10 μM NECA for A2a receptors. Activity on A2b receptor subtypes was measured in the cAMP accumulation assay described below. […]

[5] = target: T3, human A1 adenosine receptor (Homo sapiens, UniProt P30542); assay: Radioligand binding assay, A1 receptor; conditions: [3H]-cyclohexyladenosine (CHA); membranes of transfected COS7 cells; read-out: IC50, inhibition of specific radioligand binding to A1 receptor
T3 construct: expressed in transfected cells; host or cells: COS7 cells (transient transfection), membranes
T3 sequence (P30542 1-326): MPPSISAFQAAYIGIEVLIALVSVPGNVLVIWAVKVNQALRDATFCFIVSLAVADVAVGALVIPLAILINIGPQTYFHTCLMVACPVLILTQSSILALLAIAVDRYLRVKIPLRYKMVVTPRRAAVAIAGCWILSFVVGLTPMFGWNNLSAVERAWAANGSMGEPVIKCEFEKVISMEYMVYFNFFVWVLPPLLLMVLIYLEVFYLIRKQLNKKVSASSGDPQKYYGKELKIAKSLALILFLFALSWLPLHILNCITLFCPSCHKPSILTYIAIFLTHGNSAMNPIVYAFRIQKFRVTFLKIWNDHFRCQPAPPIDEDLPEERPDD
Description: as §1, §2

[6] = target: T4, human A3 adenosine receptor (Homo sapiens, UniProt P0DMS8); assay: Radioligand binding assay, A3 receptor; conditions: [3H]-NECA or [125I]-ABA; membranes of transfected COS7 cells; read-out: IC50, inhibition of specific radioligand binding to A3 receptor
T4 construct: expressed in transfected cells
T4 sequence (P0DMS8 1-318): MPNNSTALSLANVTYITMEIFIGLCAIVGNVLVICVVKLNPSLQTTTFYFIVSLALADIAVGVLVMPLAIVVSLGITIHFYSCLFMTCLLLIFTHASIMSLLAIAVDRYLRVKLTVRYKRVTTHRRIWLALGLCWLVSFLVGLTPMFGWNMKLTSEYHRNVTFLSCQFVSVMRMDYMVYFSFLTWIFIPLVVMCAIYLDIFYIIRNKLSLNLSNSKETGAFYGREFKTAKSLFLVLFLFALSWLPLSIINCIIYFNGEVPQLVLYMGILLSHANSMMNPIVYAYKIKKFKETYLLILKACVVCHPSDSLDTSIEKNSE
Experimental: Membranes prepared from transfected COS7 cells were utilized in a binding assay to measure the affinity of agonists and antagonists on the human adenosine receptors. […] Bound radioactivity was measured by scintillation counting. Binding data were analyzed by the use on nonlinear regression curve fitting program Graph Pad InPlot, Version 3.0 (Graph Pad Software, San Diego). […] The affinities of agonists and antagonists on human adenosine receptor subtypes were measured in competition binding assays using the radiolabeled adenosine agonists, [^3 H]-cyclo-hexyladenosine (CHA) for A1 receptors, [^3 H]-CGS21680 (2-(p-(2-carboxyethyl)-phenylamino)-5'-N-ethyl-carboxamidoadenosine) for A2a receptors and, [^3 H]-5'-N-ethylcarboxamido adenosine ([^3 H]-NECA), or [^125 I]-N^6 -aminobenzyl adenosine (^125 I-ABA) for A3 receptors. Nonselective binding was determined with 1 μM I-ABA for A1 and A3 receptors and 10 μM NECA for A2a receptors. […]

myocardial infarct = assay: Reduction of myocardial infarct size in anesthetized dogs; format: in vivo, dog
Experimental: The effect of antagonist compound IV, with high affinity for canine A3 adenosine receptors, on myocardial infarct size is compared to a vehicle-treated control group in barbital-anesthetized dogs subjected to 90 minutes of left anterior descending coronary artery occlusion followed by 3 hours of reperfilsion. Vehicle (5 μM NaOH in isotonic saline) or antagonist are infused at a rate of 1 ml/min directly into the left anterior descending coronary artery distal to the occlusion site beginning 10 minutes before occlusion and are continued throughout the entire ischemic period. The myocardial region at risk and infarct size are determined by the triphenyltetrazolium histochemical technique and regional myocardial blood flow by radioactive microspheres. Coronary sinus LDH activity and histamine concentrations were measured at various times throughout the experiments and myeloperoxidase activity was determined at the conclusion of the experiments as an index of neutrophil infiltration into the ischemic-reperfused mycocardium. Ten dogs were included in this preliminary study, 4 in the vehicle-treated group and 6 in the antagonist treated group.

[7] = test system: canine A3 adenosine receptors; assay: Affinity for canine A3 adenosine receptors; format: binding
[8] = target: T4, human A3 adenosine receptor; assay: cAMP accumulation assay, A3 receptors stably expressed on CHO cells (FIG. 1); format: cell-based
Experimental: The changes in cAMP accumulation were measured in stably transfected CHO cells expressing the human adenosine receptor subtypes. CHO cells were washed twice in phosphate buffered saline (PBS) and detached in 0.2% EDTA in PBS. After pelleting at 800 rpm for 10 min, cells were resuspended in KRH buffer (140 mM NaCl/5 mM KCl/2 mM CaCl2 /1.2 mM MgSO4 /1.2 mM KH2 PO4 /6 mM glucose/25 mM Hepes buffer, pH 7.4), washed once in KRH buffer and resuspended at 10^7 cells/mL. The cell suspension (100 μL) was mixed with 100 μL of KRH buffer containing 200 μM of the phosphodiesterase inhibitor Ro 20-1724 and incubated at 37° C. for 15 minutes. Antagonists were preincubated for 10 minutes before adding 5 μM forskolin and 60 μM adenosine. After 10 minutes, 400 μL of 100 mM acetic acid was added and the sample was boiled for 5 minutes. The supernatant was recovered by centrifugation for 15 minutes and cAMP levels were determined by radioimmunoassay ([…] kit, DuPont/NEN) using the acetylation protocol.

[9] = test system: ischemic reperfused myocardium; conditions: in vivo; cited from earlier work

T2 sequence (P29274 whole entry): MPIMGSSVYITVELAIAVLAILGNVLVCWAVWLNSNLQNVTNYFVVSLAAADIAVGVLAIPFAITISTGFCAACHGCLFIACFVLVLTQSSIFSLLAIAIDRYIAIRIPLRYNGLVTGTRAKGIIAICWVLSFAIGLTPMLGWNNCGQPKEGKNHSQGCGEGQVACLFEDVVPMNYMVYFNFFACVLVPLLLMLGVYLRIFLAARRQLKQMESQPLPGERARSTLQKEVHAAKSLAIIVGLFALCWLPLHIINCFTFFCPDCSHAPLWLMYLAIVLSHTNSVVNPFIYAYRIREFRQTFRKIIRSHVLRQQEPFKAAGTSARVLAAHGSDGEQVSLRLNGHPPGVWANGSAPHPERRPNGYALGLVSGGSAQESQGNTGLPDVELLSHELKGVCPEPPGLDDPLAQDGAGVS

SMILES: Nc1ncnc2c1ncn2[C@@H]1O[C@H](CO)[C@@H](O)[C@H]1O [adenosine]
release of granule contents from mast cells [1]: potentiates the release of granule contents
bronchoconstriction (asthmatics): produce bronchoconstriction in asthmatics but not in nonasthmatics
constrictor response of arterioles ([2]; 10^-6 M adenosine, abluminal): elicited an intense, transient constriction
dilator response of arterioles ([2]; concentrations higher than 10^-6 M adenosine): induced dilator responses
mast cell degranulation on abluminal vessel surface ([2]; following exposure to adenosine, methylene blue staining): mast cells are found to be degranulated

IC50, cAMP accumulation via A2b receptors [3]: inactive
IC50 [4]: 27.5 µM
IC50 [5]: 5.3 µM
IC50 [6]: 0.013 µM
affinity for canine A3 adenosine receptors [7]: high affinity
effect on basal cAMP levels ([8]; basal): no effect
effect on levels of cAMP accumulated with forskolin alone ([8]; forskolin alone): no effect
SMILES: COC(=O)C1=C2C=CN(C)C=C2c2nc(-c3ccccc3)nn2C1 [Compound IV]
myocardial infarct size (myocardial infarct; 90 min LAD occlusion, 3 h reperfusion, intracoronary infusion, vs vehicle): effectively reduces myocardial infarct size
hemodynamics and regional myocardial blood flow in non-ischemic left circumflex coronary artery region (myocardial infarct; at baseline or during occlusion, between groups): not different between groups
myeloperoxidase activity (myocardial infarct; between the two groups, end of experiment): not different between the two groups
arrhythmias (myocardial infarct; during occlusion and reperfusion, all animals): arrhythmias are encountered
coronary sinus LDH activity (myocardial infarct; during reperfusion): reduced
coronary sinus histamine concentrations (myocardial infarct; during reperfusion): reduced
dP/dt (myocardial infarct; during reperfusion): significantly improved
left anterior descending coronary artery blood flow (myocardial infarct; during reperfusion): significantly decreased
myeloperoxidase activity in infarcted tissue (myocardial infarct; infarcted tissue, end of experiment): tendency for reduced activity
collateral blood flow (myocardial infarct; ischemic-reperfused region, during occlusion, particularly subepicardial): slightly greater
ventricular fibrillation requiring cardioversion (myocardial infarct; some dogs from each group): some dogs from each group progress to ventricular fibrillation requiring cardioversion
effect on inhibition of cAMP accumulation resulting from adenosine activation of A3 receptors ([8]; 10 μM compound IV, forskolin induced cAMP): prevents the inhibition of cAMP accumulation

SMILES: Cn1c(=O)c2[nH]c(-c3ccc(S(=O)(=O)O)cc3)nc2n(C)c1=O [8(p-sulfophenyl) theophylline]
effect on adenosine-induced constriction ([2]; pretreatment 100 μM): did not alter the constriction
effect on adenosine-induced dilator responses ([2]; pretreatment 100 μM): inhibited the dilator responses

SMILES: N#Cc1cc(NC(=O)C(=O)O)c(Cl)c(NC(=O)C(=O)O)c1 [lodoxamide]
myocardial ischemic injury [9]: reduces myocardial ischemic injury
